Assay type in all cases: in vivo
For assay [1], the system named is ryegrass, Italian (Italian ryegrass, Lolium multiflorum). In words: Test A preemergence. The settings on record: Lolium multiflorum, pre-emergence, 240 h; for pest or weed control at 500 g/ha: 500 g ai/ha, preemergence, visual injury rating about 10 d after treatment, 0 to 100 scale (0 no effect, 100 complete control), read-out: Ryegrass, Italian plant response rating. The essentials:
(§1)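 Treatment is preemergence as a directed soil spray after planting, or postemergence at the one- to two-leaf stage, with test chemical in a non-phytotoxic solvent mixture plus surfactant. Plants stay in the greenhouse about 10 d before visual injury scoring on a 0 to 100 scale versus untreated controls.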

The test system of assay [2] is ragweed (common ragweed, Ambrosia elatior). In words: Test A preemergence. The settings on record: Ambrosia artemisiifolia, pre-emergence, 240 h; for pest or weed control at 500 g/ha: 500 g ai/ha, preemergence, visual injury rating about 10 d after treatment, 0 to 100 scale (0 no effect, 100 complete control), read-out: Ragweed plant response rating. The essentials:
as §1

Assay [3] has as its system barnyardgrass (Echinochloa crus-galli). In words: Test A preemergence. The settings on record: Echinochloa crus-galli, pre-emergence, 240 h; for pest or weed control at 125 g/ha: 125 g ai/ha; for pest or weed control at 500 g/ha: 500 g ai/ha, visual injury rating about 10 d after treatment, 0 to 100 scale (0 no effect, 100 complete control). The essentials:
as §1

In assay [4] the test system is giant foxtail (Setaria faberii). Description: Test A preemergence. The settings on record: Setaria faberi, pre-emergence, 240 h; for pest or weed control at 125 g/ha: 125 g ai/ha; for pest or weed control at 500 g/ha: 500 g ai/ha, visual injury rating about 10 d after treatment, 0 to 100 scale (0 no effect, 100 complete control). The essentials: as §1
Assay [5] concerns Kochia (Kochia scoparia). Description: Test A preemergence. The settings on record: Bassia scoparia, pre-emergence, 240 h, preemergence, read-out: Kochia plant response rating; for pest or weed control at 500 g/ha: 500 g ai/ha, visual injury rating about 10 d after treatment, 0 to 100 scale (0 no effect, 100 complete control). The essentials:
as §1

Assay [6] has as its system pigweed (Amaranthus retroflexus). Description: Test A preemergence. Conditions: Amaranthus retroflexus, pre-emergence, 240 h; for pest or weed control at 125 g/ha: 125 g ai/ha; for pest or weed control at 500 g/ha: 500 g ai/ha, visual injury rating about 10 d after treatment, 0 to 100 scale (0 no effect, 100 complete control).
Assay [7] concerns blackgrass (Alopecurus myosuroides). Description: Test A postemergence. Conditions: Alopecurus myosuroides, post-emergence, 240 h, 125 g ai/ha, Postemergence; visual injury after approximately 10 d; 0 to 100 scale where 0 is no effect and 100 is complete control; read-out: Plant response rating, Blackgrass. The essentials: as §1
For assay [8], the system named is corn (Zea mays). In words: Test A postemergence. The settings on record: Zea mays, post-emergence, 240 h, 125 g ai/ha, Postemergence; visual injury after approximately 10 d; 0 to 100 scale where 0 is no effect and 100 is complete control. The essentials: as §1
The subject of assay [9] is Galium (catchweed bedstraw, Galium aparine). Description: Test A postemergence. The settings on record: Galium, post-emergence, 240 h, 125 g ai/ha, Postemergence; visual injury after approximately 10 d; 0 to 100 scale where 0 is no effect and 100 is complete control; read-out: Plant response rating, Galium. The essentials: as §1
The subject of assay [10] is ryegrass, Italian (Italian ryegrass, Lolium multiflorum). In words: Test A postemergence. The settings on record: Lolium multiflorum, post-emergence, 240 h, 125 g ai/ha, Postemergence; visual injury after approximately 10 d; 0 to 100 scale where 0 is no effect and 100 is complete control; read-out: Plant response rating, Ryegrass, Italian. The essentials: as §1
Assay [11] concerns ragweed (common ragweed, Ambrosia elatior). In words: Test A postemergence. Conditions: Ambrosia artemisiifolia, post-emergence, 240 h, 125 g ai/ha, Postemergence; visual injury after approximately 10 d; 0 to 100 scale where 0 is no effect and 100 is complete control; read-out: Plant response rating, Ragweed. The essentials: as §1
Assay [12] deals with barnyardgrass (Echinochloa crus-galli). In words: Test A postemergence. The settings on record: Echinochloa crus-galli, post-emergence, 240 h, 125 g ai/ha, Postemergence; visual injury after approximately 10 d; 0 to 100 scale where 0 is no effect and 100 is complete control; read-out: Plant response rating, Barnyardgrass. The essentials:
as §1

Assay [13] concerns giant foxtail (Setaria faberii). Description: Test A postemergence. Conditions: Setaria faberi, post-emergence, 240 h, 125 g ai/ha, Postemergence; visual injury after approximately 10 d; 0 to 100 scale where 0 is no effect and 100 is complete control; read-out: Plant response rating, Foxtail, Giant. The essentials:
as §1

Assay [14] deals with Kochia (Kochia scoparia). Description: Test A postemergence. The settings on record: Bassia scoparia, post-emergence, 240 h, 125 g ai/ha, Postemergence; visual injury after approximately 10 d; 0 to 100 scale where 0 is no effect and 100 is complete control; read-out: Plant response rating, Kochia. The essentials: as §1
The subject of assay [15] is pigweed (Amaranthus retroflexus). In words: Test A postemergence. Conditions: Amaranthus retroflexus, post-emergence, 240 h, 125 g ai/ha, Postemergence; visual injury after approximately 10 d; 0 to 100 scale where 0 is no effect and 100 is complete control; read-out: Plant response rating, Pigweed. The essentials: as §1
In assay [16] the test system is wheat (Triticum aestivum). In words: Test A postemergence. The settings on record: Triticum aestivum, post-emergence, 240 h, 125 g ai/ha, Postemergence; visual injury after approximately 10 d; 0 to 100 scale where 0 is no effect and 100 is complete control; read-out: Plant response rating, Wheat. The essentials: as §1
The mark [17] stands for this setting: preemergence, read-out: Barnyardgrass plant response rating.
[18] abbreviates: preemergence, read-out: Foxtail, Giant plant response rating.
[19] abbreviates: preemergence, read-out: Pigweed plant response rating.

Take `CCc1ccccc1NC(=O)[C@H]1C(=O)N(C)C[C@@H]1c1ccc(C(F)(F)F)cc1` [Compound 935]: the pest or weed control at 500 g/ha stood at 50% in [1]; 30% in assay [2]; 90% in assay [3] (setting [17]); 90% in assay [4] (setting [18]); 80% in assay [5]; 20% in assay [6] (setting [19]). Also, the pest or weed control at 125 g/ha is 70% in assay [3] (preemergence, 0 to 100 scale where 0 is no effect and 100 is complete control, read-out: Barnyardgrass plant response rating); 90% in assay [4] (preemergence, 0 to 100 scale where 0 is no effect and 100 is complete control, read-out: Foxtail, Giant plant response rating); 70% in assay [5] (125 g ai/ha, 0 to 100 scale where 0 is no effect and 100 is complete control); 20% in assay [6] (preemergence, 0 to 100 scale where 0 is no effect and 100 is complete control, read-out: Pigweed plant response rating); 60% in assay [7]; 40% in assay [9]. For the same compound, the pest or weed control at 125 g/ha came out at 20% in [10]; 0% in assay [11]; 70% in assay [12]; 90% in [13]; 30% in [14]; 20% in assay [15]. The Corn plant response rating (crop injury, 0 = no effect, 100 = complete kill) at 125 g/ha in [8] came to 40%. Moreover, in [16], the plant injury at 125 g/ha worked out at 30%.

Consider `CN1C[C@H](c2cc(F)cc(C(F)(F)F)c2)[C@@H](C(=O)Nc2cccc(Cl)c2F)C1=O` [Compound 995], for which the pest or weed control at 125 g/ha in [1] (125 g ai/ha, Preemergence, visual injury rating after approximately 10 d, read-out: Ryegrass, Italian plant response rating (0 to 100 scale, 0 is no effect, 100 is complete control)) came to 20%; in [2] (125 g ai/ha, Preemergence, visual injury rating after approximately 10 d, read-out: Ragweed plant response rating (0 to 100 scale, 0 is no effect, 100 is complete control)) it was 0%; in assay [3] (Preemergence, visual injury rating after approximately 10 d, read-out: Barnyardgrass plant response rating (0 to 100 scale, 0 is no effect, 100 is complete control)), 80%; in assay [4] (Preemergence, visual injury rating after approximately 10 d, read-out: Foxtail, Giant plant response rating (0 to 100 scale, 0 is no effect, 100 is complete control)), 90%; in assay [6] (Preemergence, visual injury rating after approximately 10 d, read-out: Pigweed plant response rating (0 to 100 scale, 0 is no effect, 100 is complete control)), 20%; in assay [7], 50%. Besides, the pest or weed control at 125 g/ha in [9] stood at 40%; in assay [10] it was 30%; in assay [11], 0%; in assay [12] it was 60%; in [13] it was 80%; in [14], 0%. The pest or weed control at 125 g/ha in [15] was determined as 0%. Also, the pest or weed control at 500 g/ha in assay [1] is 50%; in assay [2] it was 20%; in assay [3] (setting [17]), 90%; in [4] (setting [18]), 90%; in assay [5], 0%; in assay [6] (setting [19]) it was 30%. In addition, the Corn plant response rating (crop injury, 0 = no effect, 100 = complete kill) at 125 g/ha in [8] turned out to be 30%. Also, in assay [16], the plant injury at 125 g/ha is 20%.
